From article PMC11153573, “Structural basis for expanded substrate specificities of human long chain acyl-CoA dehydrogenase and related acyl-CoA dehydrogenases” (Scientific Reports, 2024)
Positions count from the first letter of the chain named.

How the values were obtained:
[1] = molecular target: T1, human long-chain acyl-CoA dehydrogenase (LCAD) (Homo sapiens, UniProt P28330, E291Q); test: X-ray crystallography, […] Å, co-crystallized with C12-CoA; type: binding; conditions: noncovalent, one FAD per subunit; pH 8.2-8.5
T1 construct: gene ACADL; 400-residue mature protein without 30-residue mitochondrial transport peptide; pET11a-LCAD in E. coli BL21(DE3); no tag mentioned; 43 kDa subunit, homotetramer; numbering of the 430-residue preprotein
T1 sequence (P28330 31-430 E291Q): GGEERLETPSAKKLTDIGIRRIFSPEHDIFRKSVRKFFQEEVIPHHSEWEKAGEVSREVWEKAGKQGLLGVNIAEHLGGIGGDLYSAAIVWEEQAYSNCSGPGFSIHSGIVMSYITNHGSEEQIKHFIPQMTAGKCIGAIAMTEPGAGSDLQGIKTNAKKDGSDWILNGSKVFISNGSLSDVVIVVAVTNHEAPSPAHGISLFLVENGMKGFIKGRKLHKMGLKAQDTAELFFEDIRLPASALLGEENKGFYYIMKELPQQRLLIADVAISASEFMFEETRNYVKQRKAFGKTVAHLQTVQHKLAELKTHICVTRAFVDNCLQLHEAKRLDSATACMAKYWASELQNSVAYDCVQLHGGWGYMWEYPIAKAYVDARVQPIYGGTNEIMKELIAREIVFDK

[2] = molecular target: T2, human long-chain acyl-CoA dehydrogenase (LCAD) (Homo sapiens, UniProt P28330); test: X-ray crystallography, […] Å; type: binding; conditions: noncovalent, one FAD per subunit, at dimer interface; no substrate ligand; pH 8.2-8.5
T2 construct: gene ACADL; 400-residue mature protein without 30-residue mitochondrial transport peptide; pET11a-LCAD in E. coli BL21(DE3); no tag mentioned; 43 kDa subunit, homotetramer; numbering of the 430-residue preprotein
T2 sequence (P28330 31-430): T1 sequence (P28330 31-430 E291Q) with Q261E

[3] = molecular target: T2, human long-chain acyl-CoA dehydrogenase (LCAD); test: ferricenium reduction assay, spectrophotometric; type: biochemical; conditions: ferricenium as terminal electron acceptor
[4] = molecular target: T2, human long-chain acyl-CoA dehydrogenase (LCAD); test: X-ray crystallography, […] Å, soaked crystal; type: binding; conditions: active site; inhibitor; bound in monomers A and B only; 0.1% beta-octyl glucoside, pH 8.2-8.5

## Cc1cc2nc3c(=O)[nH]c(=O)nc-3n(C[C@H](O)[C@H](O)[C@H](O)COP(=O)(O)OP(=O)(O)OC[C@H]3O[C@@H](n4cnc5c(N)ncnc54)[C@H](O)[C@@H]3O)c2cc1C [FAD]
[1]
  X-ray crystallography, 2.0 Å, co-crystallized with C12-CoA: FAD, Gly412, and the catalytic residue (E291Q) are shown as sticks
[2]
  X-ray crystallography, 2.5 Å: The strong electron density map in the FAD position indicated the correctness of the solution

## CCCCCCCCCCCC(=O)SCCNC(=O)CCNC(=O)[C@H](O)C(C)(C)COP(=O)(O)OP(=O)(O)OC[C@H]1O[C@@H](n2cnc3c(N)ncnc32)[C@H](O)[C@@H]1OP(=O)(O)O [C12-CoA]
[3]
  ferricenium reduction assay, spectrophotometric: The reaction was initiated by addition of C12-CoA substrate

## CC(=O)CC(=O)SCCNC(=O)CCNC(=O)[C@H](O)C(C)(C)COP(=O)(O)OP(=O)(O)OC[C@H]1O[C@@H](n2cnc3c(N)ncnc32)[C@H](O)[C@@H]1OP(=O)(O)O [acetoacetyl-CoA]
[4]
  X-ray crystallography, 2.8 Å, soaked crystal: the inhibitor acetoacetyl-CoA can be soaked into the crystals
